Earlier results in US9034628B2, “Induction of gene expression using a high concentration sugar mixture” (Danisco US Inc., priority 2002, dated 2015).

System: main cellulase genes in Trichoderma, cbh1, cbh2, egl1, and egl2

Expression of the cellulase genes (carbon source available for growth): induced several thousand fold
expression level of the major cellobiohydrolase 1 (cbh1) (media containing inducing carbon source compared with glucose containing media (Ilmen et al. 1997)): up-regulated several thousand fold
SMILES: OC[C@H]1O[C@@H](O[C@H]2C(O)O[C@H](CO)[C@@H](O)[C@@H]2O)[C@H](O)[C@@H](O)[C@@H]1O (some centres unmarked) [sophorose]
